Source: patent US10265294B2, “Compositions and methods for treating epithelial cancer” (YALE UNIVERSITY, priority 2016, dated 2019)

Legend:
caspase-3/7 = assay: Caspase Glo assay, caspase-3/7; assay type: cell-based, human; details: 0.245 μM; at 16 and 24 h post treatment
Description: (§1) Total protein was extracted and measured as described in Kamsteeg, et al., 2003, Oncogene 22:2611-2620. Activity of caspase 3/7 and caspase 9 was quantified using Caspase Glo assay (Promega).
(§2) The activities of caspase-3/7 and caspase-9 were assessed at 2, 4, 6, 8, 16, and 24 hours post-treatment with TRX-E-002-1.

caspase-9 = assay: Caspase Glo assay, caspase-9; assay type: cell-based, human; details: 0.245 μM; at 16 and 24 h post treatment
Description: as §1, §2

[1] = tested on: chemoresistant ovarian cancer stem cells; assay: OCSC growth and morphology with TRX-E-002-1, AICAR or the combination; assay type: cell-based, human
Description: The effect of each compound on cell growth was assessed using a kinetic live cell imagine system (Incucyte, Essen Bioscience). Proliferation was determined based on either confluence or fluorescent count from nuclear-restricted RFP or GFP. The IC50 values were calculated using GraphPad Prism (GraphPad Software Inc., LaJolla, Calif.). […]

[2] = tested on: i.p. tumors of mCherry+OCSC1-F2 ovarian cancer cells; assay: Intra-peritoneal ovarian cancer xenograft, primary disease dose response; assay type: in vivo, athymic nude mice
Description: The Yale University Institutional Animal Care and Use Committee approved all in vivo studies described. Intra-peritoneal tumors were established in athymic nude mice using 4×10^6 mCherry+OCSC1-F2 ovarian cancer cells (Craveiro, et al., 2013, Cancer Med. 2:751-762). […] Establishment of i.p. tumors was confirmed by live imaging (In-Vivo FX PRO, Bruker Corp., Billerica, Mass.) prior to treatment. TRX-E-002-1 was prepared in 20% Captisol or Dexsolve and administered daily at 50 mg/kg or 100 mg/kg. Paclitaxel was given at 12 mg/kg q3d and Cisplatin at 5 mg/kg weekly. All treatments were given i.p. Tumor growth was monitored q3d by live imaging and response to treatment was assessed using ROI area.
An intra-peritoneal (i.p.) recurrent ovarian cancer xenograft model established using ovarian cancer cells stably expressing mCherry fluorescence has been established. This allows the detection of i.p. tumors and real-time measurement of response during the course of treatment. This model recapitulates the clinical profile typically seen in patients with ovarian cancer and helps one answer three questions: (1) in vivo activity of TRX-E-002-1 against primary disease; (2) ability of TRX-E-002-1 given in combination with chemotherapy to prevent/delay recurrence; and (3) ability of TRX-E-002-1 given as maintenance after chemotherapy to prevent/delay recurrence.
To determine activity against primary disease as well as to determine the maximum tolerated dose (MTD), a dose response study was performed. […] Animals however recovered from the distension upon cessation of treatment. […] Thus, the MTD was established at daily 100 mg/kg i.p. and this dose was employed for the succeeding studies employing combination treatment.

ERK = assay: Phosphokinase array / Western blot for phosphorylated ERK in OCSCs; assay type: cell-based, human; details: compared to controls; from 2 h up to 24 h post-treatment
Description: (§3) SDS-PAGE and Western blots were performed using 20 μg of total protein lysate as described in Kamsteeg, et al., 2003, Oncogene 22:2611-2620. Antibodies used were: mouse anti-phospho ERK (Santa Cruz Biotechnology, Inc., Dallas, Tex.); rabbit anti-phospho c-Jun, rabbit anti c-Jun, rabbit anti-ERK, rabbit anti-cleaved caspase 3 all from Cell Signaling Technology, Danvers, Mass.; and mouse anti-GAPDH (Sigma-Aldrich).
(§4) In order to elucidate the early pathways responsible for the sustained cytotoxic effect observed with TRX-E-002-1, a phosphokinase array was performed. The phosphokinase array detected relative phosphorylation levels of 43 different kinases involved in major signal transduction pathways.
(§5) The western blot results also validated the decrease in p-ERK in cells treated with TRX-E-002-1. […] The effect on the phosphorylation status of the kinases (upregulation of p-cJun and downregulation of p-ERK) was observed as early as 2 h post-treatment and maintained up to 24 h (FIG. 4A). The phosphorylation levels of c-Jun and ERK correlate with the differential ability of the two doses of TRX-E-002-1 to induce a sustained cytotoxic effect. […] This correlates with the ability of this dose of TRX-E-002-1 to maintain the upregulation of p-cJun and downregulation of p-ERK even when the compound is removed (FIG. 4B). […]

c-Jun = assay: Phosphokinase array / Western blot for phosphorylated and total c-Jun in OCSCs; assay type: cell-based, human
Description: as §3, §4, §5

COc1cc(C2COc3c(ccc(O)c3C)C2c2ccc(O)cc2)cc(OC)c1O (single isomer, unassigned) [TRX-E-002-1]
caspase-3/7 activity (caspase-3/7): significant increase | caspase-9 activity (caspase-9): significant increase | cell morphology / apoptotic cells ([1]; 48 hours, AICAR at 0.2 mM): only minimal effect | effect on cell growth ([1]; TRX-E-002-1 25 ng/ml, mono therapies or combination): minimal effect | tumor burden compared to vehicle control ([2]; 50 mg/kg daily i.p., starting at day 14): significant reduction | residual disease at completion of the treatment ([2]; 100 mg/kg daily i.p.): very little residual disease | p-c-Jun and total c-Jun in residual tumors ([2]; 100 mg/kg daily i.p., Western blot): upregulation | tumor burden compared to vehicle control ([2]; 100 mg/kg daily i.p., starting at day 10): significant reduction | tumor burden ([2]; 150 mg/kg i.p. three times weekly, by the 10th dose): significant decrease | levels of phosphorylated-ERK (p-ERK) (ERK): lower levels | total c-Jun (c-Jun; Western blot time course): time-dependent increase | levels of phosphorylated c-Jun (p-c-Jun) (c-Jun; compared to controls, from 2 h up to 24 h post-treatment): higher levels
